Measured values published in US20170071852A1, “THERAPEUTIC OR PREVENTIVE AGENT FOR MEIBOMIAN GLAND DYSFUNCTION OR MEIBOMIAN GLAND BLOCKAGE” (Santen Pharmaceutical Co., Ltd., priority 2012, published 2017).
“Also recorded” adds a separate entry of the source.

Assays:
female Lewis rats = assay: Test for meibomian gland peripheral telangiectasia by administration of complete Freund's adjuvant using rats; format: in vivo, rat; conditions: for Telangiectasia score (mean): six eyes
Procedure: 1. Test for Meibomian Gland Peripheral Telangiectasia by Administration of Full Friend's Adjuvant Using Rats Clarithromycin (LKT Laboratories, Inc.), concentrated glycerin, dibasic sodium phosphate hydrate and polyoxyl 40 stearate were added to purified water and dissolved to prepare a test sample comprising clarithromycin at a final concentration of 1% (w/v), at pH 7. Twenty five μl of complete Freund's adjuvant was administered to one site of the right upper eyelid of female Lewis rats at five weeks age. On the seventh day from the initiation, the periphery of the meibomian gland orifices on the right upper eyelid was observed using a slit-lamp and a telangiectasia score was determined. The eyelid margin of the upper eyelid was divided into three segments: ear, middle and nasal sites, and based on criteria described in Table 1, scores of telangiectasia peripheral to the meibomian gland orifices in each segment were determined and the sum of the scores in three segments were calculated as the telangiectasia score of one eye. The presence or absence of dilation of the capillaries was determined based on whether a capillary that is usually not visible could be ascertained as a result of enlargement of the capillary diameter. [table] After dividing into a saline-administered group and a 1% (w/v) clarithromycin aqueous solution-administered groups, the test was carried out with six eyes in each group so as to minimize variations in mean scores, and from the 8th day after initiation, saline (5 μl/eye, six times per day) or 1% (w/v) clarithromycin aqueous solution (5 μl/eye, three or six times per day) were instilled into the right eyes for 21 days. At 28 days after initiation, the peripheries of the meibomian gland orifices on the right upper eyelids were observed using a slit-lamp and the telangiectasia score was determined.

[1] = tested on: Male Hos:HR-1 hairless mice; assay: Test for obstruction of meibomian gland orifices by feeding HR-AD diet using hairless mice; format: in vivo, mouse; conditions: for Number of obstructed meibomian gland orifices (mean, out of eight): six eyes
Procedure: 2. Test for Obstruction of Meibomian Gland Orifices by Feeding HR-AD Diet Using Hairless Mice A 1% (w/v) clarithromycin test solution was prepared by the same operation as described in Pharmacological Test 1. Male Hos:HR-1 hairless mice at five weeks of age were divided into a group of 6 fed a regular diet (CRF-1 diet, manufactured by Oriental Yeast Co., Ltd.); and a group of 12 fed an HR-AD diet (manufactured by Nosan Corporation), and the mice in each respective group were freely allowed to feed the regular diet or HR-AD diet. On the 28th day after the start of the diets, meibomian gland orifices were observed using a slit-lamp and the number of obstructed orifices out of eight meibomian gland orifices of the center of the right upper eyelid were counted. The presence or absence of an obstruction of the meibomian gland orifice was determined based on whether the meibomian gland orifice was in a cloudy and swollen state. The 12 mice in the HR-AD diet group were further divided into a saline-administered group; and a 1% (w/v) clarithromycin aqueous solution-administered group, and testing was carried out with six eyes in each group so as to minimize variations in the mean scores of the number of obstructed meibomian gland orifices in each group; from the 29th day after starting the diets, saline (2 μl/eye, three times per day) or 1% (w/v) clarithromycin aqueous solution (2 μl/eye, three times per day) were instilled for 14 days. At 42 days after starting the diet, meibomian gland orifices were observed using a slit-lamp and the number of obstructed orifices out of eight meibomian gland orifices of the center of the right upper eyelid were counted.

[2] = 42 days after starting HR-AD diet (14 days from starting administration), 1% (w/v) aqueous solution

CC[C@H]1OC(=O)[C@H](C)[C@@H](O[C@H]2C[C@@](C)(OC)[C@@H](O)[C@H](C)O2)[C@H](C)[C@@H](O[C@@H]2O[C@H](C)C[C@H](N(C)C)[C@H]2O)[C@](C)(OC)C[C@@H](C)C(=O)[C@H](C)[C@@H](O)[C@]1(C)O [clarithromycin, Clarithromycin]
Telangiectasia score (mean) (female Lewis rats; 7 days after initiation (day 0 from start of administration, baseline), 1% (w/v) aqueous solution group, instilled 3 times per day): 5.3
Telangiectasia score (mean) (female Lewis rats; 7 days after initiation (day 0 from start of administration, baseline), 1% (w/v) aqueous solution group, instilled 6 times per day): 5.3
Telangiectasia score (mean) (female Lewis rats; 28 days after initiation (day 21 from start of administration), 1% (w/v) aqueous solution, 5 μl/eye, instilled 3 times per day): 2.8
Telangiectasia score (mean) (female Lewis rats; 28 days after initiation (day 21 from start of administration), 1% (w/v) aqueous solution, 5 μl/eye, instilled 6 times per day): 2.5
Telangiectasia score in the vicinity of the meibomian gland orifices compared to the saline-administered group (female Lewis rats; 28 days after initiation (day 21 from start of administration), 1% aqueous solution instilled three or six times per day): notably improved the telangiectasia score; also recorded: remarkably lower
Number of obstructed meibomian gland orifices (mean, out of eight) ([1]; 28 days after starting feeding HR-AD diet (day 0 from start of administration, baseline), 1% (w/v) aqueous solution group): 5.5
Meibomian gland concretion [1, 2]: improved
Number of obstructed meibomian gland orifices, change in words [1, 2]: notably reduced the number of obstructions; also recorded: remarkably decreased
Number of obstructed meibomian gland orifices (mean, out of eight) ([1]; 42 days after starting feeding HR-AD diet (day 14 from start of administration), 1% (w/v) aqueous solution, 2 μl/eye, three times per day): 1.8
